Results reported in patent US20260042755A1, “GPR6 INVERSE AGONISTS” (MapLight Therapeutics, Inc., priority 2022, published 2026).

Experiments:
[1] = molecular target: T1, GPR6 (Homo sapiens, UniProt P46095); assay: GPR6 antagonist functional cAMP assay (LANCE Ultra cAMP TR-FRET, CHO cells stably expressing GPR6); assay type: cell-based
T1 construct: expressed in transfected cells; host or cells: CHO cells
In short: (§1)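 Read-out was TR-FRET cAMP signal at 665 nm after 1 h at room temperature, following 45 min compound exposure at 37 °C. Assay buffer contained 0.1% BSA and 150 μM Ro 20-1724. Antagonist IC50s were fitted with a 4-parameter logistic against DMSO and reference controls.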

[2] = molecular target: T2, GPR3 (Homo sapiens, UniProt P46089); assay: GPR3 antagonist functional cAMP assay (LANCE Ultra cAMP TR-FRET, CHO cells stably expressing GPR3); assay type: cell-based
T2 construct: expressed in transfected cells; host or cells: CHO cells
T2 sequence (P46089 whole entry, species assumed): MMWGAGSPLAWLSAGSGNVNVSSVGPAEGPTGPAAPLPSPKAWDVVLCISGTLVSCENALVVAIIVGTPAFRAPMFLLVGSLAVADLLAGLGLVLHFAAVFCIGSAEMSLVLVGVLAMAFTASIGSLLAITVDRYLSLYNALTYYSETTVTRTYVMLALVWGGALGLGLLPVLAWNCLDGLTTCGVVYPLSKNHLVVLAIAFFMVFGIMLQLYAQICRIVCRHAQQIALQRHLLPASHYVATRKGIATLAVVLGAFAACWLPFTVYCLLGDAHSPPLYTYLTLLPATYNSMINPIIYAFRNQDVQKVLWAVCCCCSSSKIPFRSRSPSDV
In short: as §1

[3] = CHO cells stably expressing GPR6, cAMP assay (Example 24)
[4] = CHO cells stably expressing GPR3, cAMP assay (Example 24)
[5] = CHO cells stably expressing GPR6, cAMP assay
[6] = CHO cells stably expressing GPR3, cAMP assay

T1 sequence (P46095 whole entry): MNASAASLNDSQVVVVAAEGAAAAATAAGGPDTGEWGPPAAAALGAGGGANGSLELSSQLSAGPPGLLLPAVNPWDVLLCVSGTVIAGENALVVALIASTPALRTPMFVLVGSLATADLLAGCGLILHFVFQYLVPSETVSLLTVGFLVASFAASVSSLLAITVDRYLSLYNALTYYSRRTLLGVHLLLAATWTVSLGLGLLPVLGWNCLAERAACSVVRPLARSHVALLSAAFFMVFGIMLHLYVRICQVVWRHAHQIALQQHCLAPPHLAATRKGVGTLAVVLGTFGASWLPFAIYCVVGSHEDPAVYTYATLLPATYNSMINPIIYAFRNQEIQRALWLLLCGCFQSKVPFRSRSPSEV

Cn1cc(-c2nc3cnc(C#N)cc3nc2N2CCN(Cc3ccc(F)cc3F)CC2)cn1 [Compound 216, 2-{4-[(2,4-difluorophenyl)methyl]piperazin-1-yl}-3-(1-methyl-1H-pyrazol-4-yl)pyrido[3,4-b]pyrazine-7-carbonitrile]
IC50 [1, 3]: 0.1 to 1 µM
IC50 [2, 4]: 1 to 30 µM

CC(=O)N1CC=C(c2nc3c(nc2N2CCC(Oc4ccc(F)cc4F)CC2)CCN(C(C)=O)C3)CC1 [Compound 69, 1-(3-(1-acetyl-1,2,3,6-tetrahydropyridin-4-yl)-2-(4-(2,4-difluorophenoxy)piperidin-1-yl)-7,8-dihydropyrido[3,4-b]pyrazin-6(5H)-yl)ethan-1-one]
IC50 [1, 3]: 1 to 30 µM
IC50 [2, 4]: 1 to 30 µM

CN(C)C(=O)N1CCc2nc(N3CCC(Oc4ccc(F)cc4F)CC3)c(-c3cn[nH]c3)nc2C1 [Compound 187, 2-[4-(2,4-difluorophenoxy)piperidin-1-yl]-N,N-dimethyl-3-(1H-pyrazol-4-yl)-5H,6H,7H,8H-pyrido[3,4-b]pyrazine-6-carboxamide]
IC50 [1, 3]: < 0.1 µM
IC50 [2, 4]: 1 to 30 µM

CC(C)(O)[C@](C)(O)c1cc2nc(N3CCN(Cc4ccccc4F)CC3)c(-c3cnn(C(F)F)c3)nc2cn1 (single isomer, unassigned) [Compound 669]
IC50 ([1]; procedure of Example 24): 0.1 to 1 µM
IC50 ([2]; procedure of Example 24): 1 to 30 µM

COC(=O)c1cc2nc(N3CCC(Oc4ccc(F)cc4F)CC3)c(-c3cnn(C)c3)nc2cn1 [Compound 251, methyl 2-[4-(2,4-difluorophenoxy)piperidin-1-yl]-3-(1-methyl-1H-pyrazol-4-yl)pyrido[3,4-b]pyrazine-7-carboxylate]
IC50 [1, 3]: 1 to 30 µM
IC50 [2, 4]: 1 to 30 µM

CC(O)c1cc2nc(N3CCC(Oc4ccc(F)cc4F)CC3)c(-c3cnn(C)c3)nc2cn1 (stereo not drawn) [Compound 467, 1-{2-[4-(2,4-difluorophenoxy)piperidin-1-yl]-3-(1-methyl-1H-pyrazol-4-yl)pyrido[3,4-b]pyrazin-7-yl}ethan-1-ol]
IC50 [1, 3]: 1 to 30 µM
IC50 [2, 4]: 1 to 30 µM

CC(=O)N1CCc2nc(N3CCN(Cc4cccc(F)c4)CC3)c(-c3cnn(C)c3)nc2C1 [Compound 256, 1-(2-{4-[(3-fluorophenyl)methyl]piperazin-1-yl}-3-(1-methyl-1H-pyrazol-4-yl)-5H,6H,7H,8H-pyrido[3,4-b]pyrazin-6-yl)ethan-1-one]
IC50 [1, 3]: 1 to 30 µM
IC50 [2, 4]: 1 to 30 µM

CC(C)(O)C(C)(O)c1cc2nc(N3CCN(Cc4ccc(F)cc4F)CC3)c(-c3cnn(C4CC4)c3)nc2cn1 (stereo not drawn) [Compound 605, 2-[3-(1-cyclopropyl-4-pyrazolyl)-2-{4-[(2,4-difluorophenyl)methyl]-1-piperazinyl}-1,4,6-triaza-7-naphthyl]-3-methyl-2,3-butanediol]
IC50 [1, 5]: 0.1 to 1 µM
IC50 [2, 6]: 1 to 30 µM

CC(=O)N1CCc2nc(N3CCN(Cc4cccc(C#N)c4)CC3)c(-c3cnn(C)c3)nc2C1 [Compound 512, m-({4-[6-acetyl-3-(1-methyl-4-pyrazolyl)-5,6,7,8-tetrahydro-1,4,6-triaza-2-naphthyl]-1-piperazinyl}methyl)benzonitrile]
IC50 [1, 5]: 1 to 30 µM
IC50 [2, 6]: 1 to 30 µM

CCn1cnc(-c2nc3c(nc2N2CCC(Oc4ccc(F)cc4F)CC2)CCN(C(C)=O)C3)c1 [Compound 476, 1-{2-[4-(2,4-difluorophenoxy)piperidin-1-yl]-3-(1-ethyl-1H-imidazol-4-yl)-5H,6H,7H,8H-pyrido[3,4-b]pyrazin-6-yl}ethan-1-one]
IC50 [1, 3]: 1 to 30 µM
IC50 [2, 4]: 1 to 30 µM

COC[C@](C)(O)c1cc2nc(N3CCC(Oc4ccc(F)cc4F)CC3)c(-c3cnn(C)c3)nc2cn1 (single isomer, unassigned) [Compound 614]
IC50 ([1]; procedure of Example 24): 0.1 to 1 µM
IC50 ([2]; procedure of Example 24): 1 to 30 µM

CCn1cc(-c2nc3cnc(C)cc3nc2N2CCC(Oc3ccc(F)cc3F)CC2)cn1 [Compound 313, 4-(2,4-difluorophenoxy)-1-[3-(1-ethyl-1H-pyrazol-4-yl)-7-methylpyrido[3,4-b]pyrazin-2-yl]piperidine]
IC50 ([1]; procedure of Example 24): 0.1 to 1 µM
IC50 ([2]; procedure of Example 24): 1 to 30 µM

CC(=O)N1CCc2nc(N3CCN(Cc4ccc(OC(F)(F)F)cc4)CC3)c(-c3cnn(C)c3)nc2C1 [Compound 359, 1-[3-(1-methyl-1H-pyrazol-4-yl)-2-(4-{[4-(trifluoromethoxy)phenyl]methyl}piperazin-1-yl)-5H,6H,7H,8H-pyrido [3,4-b]pyrazin-6-yl]ethan-1-one]
IC50 ([1]; procedure of Example 24): 1 to 30 µM
IC50 ([2]; procedure of Example 24): 1 to 30 µM

CCn1cc(-c2nc3cnc(N)cc3nc2N2CCC(Oc3cc(Cl)ccc3Cl)CC2)cn1 [Compound 440, 2-[4-(2,5-dichlorophenoxy)piperidin-1-yl]-3-(1-ethyl-1H-pyrazol-4-yl)pyrido[3,4-b]pyrazin-7-amine]
IC50 [1, 3]: 1 to 30 µM
IC50 [2, 4]: 1 to 30 µM

CCn1cc(-c2nc3cnc([C@](C)(O)C(C)(C)O)cc3nc2N2CCN(Cc3ccc(F)cc3F)CC2)cn1 (single isomer, unassigned) [Compound 697]
IC50 ([1]; procedure of Example 24): 0.1 to 1 µM
IC50 ([2]; procedure of Example 24): 1 to 30 µM

CC(=O)N1CCc2nc(N3CCC(Oc4cc(Cl)c(F)cc4F)CC3)c(-c3cnn(C)c3)nc2C1 [Compound 458, 1-{2-[4-(5-chloro-2,4-difluorophenoxy)piperidin-1-yl]-3-(1-methyl-1H-pyrazol-4-yl)-5H,6H,7H,8H-pyrido[3,4-b]pyrazin-6-yl}ethan-1-one]
IC50 [1, 3]: 0.1 to 1 µM
IC50 [2, 4]: 1 to 30 µM

CC(C)(O)[C@](C)(O)c1cc2nc(N3CCN(Cc4ccc(F)cc4F)CC3)c(-c3cnn(C4CC4)c3)nc2cn1 (single isomer, unassigned) [Compound 666]
IC50 ([1]; procedure of Example 24): 0.1 to 1 µM
IC50 ([2]; procedure of Example 24): 1 to 30 µM

COC[C@](C)(O)c1cc2nc(-c3cnn(C)c3)c(N3CCC(Oc4ccc(F)cc4F)CC3)nc2cn1 (single isomer, unassigned) [Compound 689]
IC50 ([1]; procedure of Example 24): 0.1 to 1 µM
IC50 ([2]; procedure of Example 24): 0.1 to 1 µM

CC(C)(O)[C@@](C)(O)c1cc2nc(-c3cnn(C4CC4)c3)c(N3CCN(Cc4ccc(F)cc4F)CC3)nc2cn1 (single isomer, unassigned) [Compound 682]
IC50 ([1]; procedure of Example 24): < 0.1 µM
IC50 ([2]; procedure of Example 24): 1 to 30 µM

CC(C)(O)[C@H](O)c1cc2nc(N3CCC(Cc4ccc(F)cc4F)CC3)c(-c3cnn(CF)c3)nc2cn1 (single isomer, unassigned) [Compound 728]
IC50 ([1]; procedure of Example 24): < 0.1 µM
IC50 ([2]; procedure of Example 24): 0.1 to 1 µM

CC(C)(O)[C@H](O)c1cc2nc(N3CCC(=Cc4ccc(F)cc4F)CC3)c(-c3cnn(C4CC4)c3)nc2cn1 (single isomer, unassigned) [Compound 770]
IC50 ([1]; procedure of Example 24): 0.1 to 1 µM
IC50 ([2]; procedure of Example 24): 1 to 30 µM

O=S(=O)(C1COC1)N1CCc2nc(N3CCC(Oc4ccc(F)cc4F)CC3)c(-c3cnn(C4CCCCO4)c3)nc2C1 (stereo not drawn) [Compound 151, 4-(2,4-difluorophenoxy)-1-{3-[1-(oxan-2-yl)-1H-pyrazol-4-yl]-6-(oxetane-3-sulfonyl)-5H,6H,7H,8H-pyrido[3,4-b]pyrazin-2-yl}piperidine]
IC50 [1, 3]: 1 to 30 µM
IC50 [2, 4]: 1 to 30 µM

CC(=O)N1CCc2nc(N3CCN(C(=O)c4ccc(Cl)cc4)CC3)c(-c3cnn(C)c3)nc2C1 [Compound 538, 1-{2-[4-(p-chlorobenzoyl)-1-piperazinyl]-3-(1-methyl-4-pyrazolyl)-5,6,7,8-tetrahydro-1,4,6-triaza-6-naphthyl}-1-ethanone]
IC50 [1, 5]: 0.1 to 1 µM
IC50 [2, 6]: 1 to 30 µM

COC[C@@H]1CN(Cc2ccc(F)cc2F)CCN1c1nc2c(nc1-c1cnn(C)c1)CN(C(C)=O)CC2 (single isomer, unassigned) [Compound 244]
IC50 [1, 3]: 1 to 30 µM
IC50 [2, 4]: 1 to 30 µM
